Like-named read-outs stand apart in the source and are kept apart here.
Tests used:
[1] = system: 4T1 mouse triple-negative breast cancer cells; conditions: for inhibition of lung metastasis / IC50, metastasized 4T1 cells in the lungs: BALB/c mice, oral; for IC50, metastasized 4T1 cells in the lungs: Day 7 to Day 27
Description: In the second orthotopic spontaneous tumor metastasis mouse model, 4T1 mouse triple-negative breast cancer cells were injected into the mammary gland of BALB/c mice, and then the metastasis to the lung was monitored (Figure 2D,E). The 4T1 mouse tumor closely mimics human breast cancer in its anatomical site, immunogenicity, growth characteristics, and metastatic properties. From the mammary gland, the 4T1 tumor spontaneously metastasizes to a variety of target organs including lung, bone, brain, and liver. Seven days after the implantation of 4T1 tumor cells, we orally administered the mice with different concentrations of NP-G2-044 either once a day or twice a day for six days a week. After 28 days, the mice were sacrificed and examined for metastasis in the lungs.
Female BALB/c mice (6- to 8-week old) were purchased from Charles River Labs. The 4T1 tumor cells (1 × 10^5) were injected subcutaneously into the abdominal mammary gland area of mice using 0.1 mL of a single-cell suspension in PBS-matrigel (v/v, 1:1) on Day 0 as previously described. […] On Day 28, the mice were sacrificed. […] The numbers of metastatic 4T1 cells in lungs were determined by a clonogenic assay. In brief, the lungs were removed from each mouse, finely minced and digested in 5 mL of an enzyme cocktail containing 1 × PBS and 1 mg/mL collagenase type IV for 2 h at 37 ℃ on a platform rocker. After incubation, samples were filtered through 70-µm nylon cell strainers and washed twice with PBS. The resulting cells were suspended and plated with a series of dilutions in 10-cm tissue culture dishes in DMEM medium containing 60 µM thioguanine for clonogenic growth. As 4T1 tumor cells are resistant to 6-thioguanine, the metastasized tumor cells formed foci after 14 days, at which time they were fixed with 4% paraformaldehyde and stained with crystal violet staining solution for counting. For the experiments in Figure 2F,G, 4T1 tumor cells (1 × 10^5) suspended in PBS-matrigel (v/v, 1:1) were injected subcutaneously into the abdominal mammary gland area of mice on day 0. Starting on Day 3, NP-G2-044 was given to mice once every day by oral gavage at 100 mg kg^−1 per mouse. A vehicle solvent was given to the control group of mice once every day by gavage. Starting on Day 7, paclitaxel was given to mice twice a week by an intraperitoneal injection at 20 mg kg^−1 per mouse for two weeks. Primary tumors were removed on Day 14. All mice were killed for a clonogenic assay on Day 32.

Ly10 cells = test: Soft-agar colony formation assay, Ly10; format: cell-based; conditions: 14 days, dosage-dependent
Description: A total of 1 × or 2 ×10^4 cells were suspended in 0.5 mL of 0.3% low melting point agar (Merck KGaA, Darmstadt, Germany) in RPMI-1640 or DMEM containing 10% FBS and control solvent or the inhibitors. This suspension was overlaid on pre-solidified with 0.6% agar in the same medium in 24-well plates as previously described. Normal growth medium containing control solvent or the inhibitors was gently layered over the cultures every 4 days for 14 days. The colonies were stained with 0.1% crystal violet for 1 h at room temperature and counted under a microscope.

HT lymphoma cells = test: HT lymphoma model in NSG mice (tumor growth, overall survival); format: in vivo; conditions: 300 mg/kg gavage once a day 5 days every week from day 28, vs control
Description: HT cells (5 × 10^6) suspended in PBS-matrigel (v/v, 1: 1) were subcutaneously injected into NSG mice on day 0. Starting on day 28, NP-G2-044 or the control solvent was given once a day for 5 days every week by gavage at 300 mg kg^−1 per mouse until their death.

[2] = system: HCC38 triple-negative breast cancer cells; test: Cell growth assay, HCC38; format: cell-based; conditions: HCC38 cells in culture, 10% serum
MDA-MB-468 tumor cells = test: MDA-MB-468 breast cancer model in NSG mice (tumor growth, overall survival); format: in vivo; conditions: treatment from Day 14, compared with the control group
Description: MDA-MB-468 cells and HCC38 cells grew in the presence of EGF with or without NP-G2-044. […] Finally, we used the animal model to investigate whether the primary tumor growth of MDA-MB-468 cells was sensitive to fascin inhibitors. MDA-MB-468 tumor cells were implanted into the mammary gland of NSG mice, and these mice were randomly divided into four groups. One group of mice was used as control (Figure 6I). The second group of mice was treated with the fascin inhibitor NP-G2-044 (Figure 6I). The third group was treated with the EGFR inhibitor gefitnib (Figure 6I), and the fourth group was treated with the combination of NP-G2-044 + gefitinib (Figure 6I). […] We dissected the primary tumor tissues 55 days after the tumor implantation from some mice. […] Furthermore, the overall survival of the mice was analyzed (Figure 6K).
For the breast cancer model, MDA-MB-468 cells (5 × 10^6) suspended in PBS-matrigel (v/v, 1:1) were injected subcutaneously into the abdominal mammary gland area of female NSG mice on Day 0 as previously described. Starting on Day 14, NP-G2-044 was given once a day for 5 days every week by gavage at 300 mg kg^−1 per mouse until their death. Starting on Day 14, gefitinib was given twice weekly by gavage at 150 mg kg^−1 per mouse until their death. The control solvent was given once a day for 5 days every week by gavage according to their body weight until their death. […] The primary tumor volume was calculated as length × width^2 ×π/6.

[3] = system: NCI-H660 human neuroendocrine prostate cancer cells
Description: To investigate the effect of NP-G2-044 on the overall survival of mice bearing NCI-H660 tumors, NCI-H660 tumor cells were injected into the prostate of male NSG mice. NCI-H660 tumor-bearing mice were randomized into two groups. In the control group, the vehicle solvent was given (marked as the “control” group) (Figure 3F). In the second group, the mice were treated with NP-G2-044 (5 days per week by an oral gavage). NP-G2-044 treatment started on Day 7.
Human neuroendocrine prostate cancer NCI-H660 cells (1 × 10^5) suspended in PBS were injected into the prostate of male NSG mice (6- to 8-week old from the Jackson Lab) on day 0 as previously described [56]. Briefly, the abdomen was cleaned with iodine solution, and a 1-cm midline incision was created to expose the prostate gland. A 29-gauge needle and a 1-mL disposable syringe were used for the injection of the cell suspension. The needle was inserted into the middle portion of the right anterior lobe, and then was directed towards the cranial portion of the lobe. The abdominal wound was closed in 2 layers with surgical sutures. Starting on Day 7, NP-G2-044 or the control solvent was given once a day for 5 days a week by oral gavage. […] The death of the mice was used as the endpoint.

U2932 cells = test: Cell growth assay, U2932; conditions: U2932 cells in culture, 4 days
Description: We then extended our search to other types of lymphoma cells. […] Both U2932 and Ly10 cells are ABC-subtype DLBCLs, and HT cells are diffuse mixed lymphoma.
For NP-G2-044 dose-dependent studies, 1 × 10^5 Ly10, U2932, or HT cells were seeded in a 12- or 24-well plate on day 0. A total of 1, 3, 10, 30, or 100 μM NP-G2-044 or control solvent was added to the plates. Cells were collected and counted on day 4. For time-dependent studies, 1 × 10^5 Ly10, U2932, or HT cells were seeded in a 12- or 24-well plate on day 0. A total of 30 μM NP-G2-044, 5 μM LY2409881, 30 μM NP-G2-044 plus 5 μM LY2409881, or control solvent was added to the plates. Cells were collected and counted on Days 2 and 4. […] The cell growth index was expressed as the fold changes of cell numbers over the starting cell number. For these assays, the old medium was changed with a fresh medium containing the control solvent or the inhibitors every two days.

## Cc1occc1C(=O)Nc1nn(Cc2ccc(C(F)(F)F)cc2)c2ccccc12 [NP-G2-044]
[1]; 30 mg/kg twice a day
  inhibition of lung metastasis: almost complete inhibition
[1]; 300 mg/kg once a day
  inhibition of lung metastasis: almost complete inhibition
[1]; once a day
  IC50, metastasized 4T1 cells in the lungs: 40 mg/kg
[1]; twice a day
  IC50, metastasized 4T1 cells in the lungs: 5 mg/kg
[1]; mouse, in vivo
  tolerability of dosage regimen: well tolerated with no signs of overt toxicity
Ly10 cells
  number of growing colonies: decreased the number of growing colonies
HT lymphoma cells
  primary tumor growth: decreased
HT lymphoma cells; logrank p = 0.002
  overall survival: increased
[2]
  growth sensitivity: sensitive
MDA-MB-468 tumor cells
  growth of primary tumors: reduced the growth of primary tumors to the same degree
  increase of median overall survival: ~ 50%
[3]; male NSG mice, oral gavage 5 days per week from Day 7, compared with control group, log-rank p < 0.001
  increase of median overall survival: 50%
[3]; mouse, in vivo, po
  tolerability of dosage regimen: well tolerated with no signs of overt toxicity
U2932 cells
  effect on cell growth: inhibitory effect
